*1 amine or outer side, *2 acyl side, *3 side chain or, on linkers, in order; H or OH if unused. Where a SMILES comes first, the peptide text is derived from it. Bridges are numbered along the chain shown (N, C = ends). [ ]: non-standard residue; d: D form. ξ: configuration not given here. Phe(4-NO2) = N[C@@H](Cc1ccc([N+](=O)[O-])cc1)C(=O)O; Phe(4-Cl) = N[C@@H](Cc1ccc(Cl)cc1)C(=O)O; NHCH2CMe2S = CC(C)(CN[*:1])S[*:2]; NMeR = CN[C@@H](CCCNC(=N)N)C(=O)O; X1 = CC(C)(CN[*:2])S[*:1]; ξC = NC(CS)C(=O)O; Sar = CNCC(=O)O
Experiments:
KOP = KOP (Homo sapiens, UniProt P41145); assay: In vitro cAMP activity at KOP (Table 10); format: cell-based; details: cAMP inhibition, four-parameter regression, normalised to U50488H
KOP, sequence (P41145 whole entry): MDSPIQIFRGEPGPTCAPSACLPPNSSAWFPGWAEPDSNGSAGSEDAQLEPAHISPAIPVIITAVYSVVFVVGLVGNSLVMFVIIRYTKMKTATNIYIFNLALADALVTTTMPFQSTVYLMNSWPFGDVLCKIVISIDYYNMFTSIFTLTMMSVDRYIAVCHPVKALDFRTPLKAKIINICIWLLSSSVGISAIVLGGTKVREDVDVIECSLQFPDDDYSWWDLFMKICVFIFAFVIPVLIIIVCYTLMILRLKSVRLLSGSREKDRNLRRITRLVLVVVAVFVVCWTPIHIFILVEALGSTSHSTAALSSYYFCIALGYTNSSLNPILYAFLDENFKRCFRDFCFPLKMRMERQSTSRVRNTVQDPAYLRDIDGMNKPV
Experimental: (§1) The CP series compounds were assayed as follows: The assay was performed using a 96 well ½ area plate. The different cAMP standard solutions (3 μL/well) were plated in duplicate. The different concentrations of drug (3 μL/well), and control solutions (3 μL/well) were plated in triplicate. Following this, the acceptor bead mixture (3 μL/well) was added to the respective sets—either cAMP standard curve or the treatment. This was covered and incubated on the orbital shaker for 60 minutes at 37° C. Then, the donor bead mixture (10 μL/well) was added to each well. This was incubated at room temperature overnight on the orbital shaker.
(§2) For DP-11-06 the assay was carried out in the same way as for the CP compounds except it was incubated for 30 mins at 37° C.
(§3) For the CP series compounds and DP-11-06, the Ensight® Multimode Plate Reader was used to quantify the fluorescence units of each plate. Before reading, each plate was centrifuged at 280 g for 30 seconds. Using GraphPad Prism7® Software, cAMP concentrations were determined by fit spline/LOWESS analysis. The cAMP standard curve was used for interpolation at this point. The cAMP concentrations were then normalized to the highest cAMP concentration recorded and analyzed by one-way ANOVA for multiple comparisons. The IC50 for each compound was then calculated using GraphPad Prism7® with non-linear regression analysis using four parameter curve fitting.
(§4) The results shown in Table 10 utilized rat plasma. • Note that DP-7-11 and CP5 represent the same compound, and DP-7-12 and CP6 are the same compound. In this regard, a different regression analysis method was adopted on the above cAMP experiments. Particularly, a new non-linear regression (four-parameter) was adopted to better account for hill slope, thereby improving the regression fit.

DOP = DOP (Homo sapiens, UniProt P41143); assay: In vitro cAMP activity at DOP (Table 10); format: cell-based; details: cAMP inhibition, four-parameter regression
DOP, sequence (P41143 whole entry): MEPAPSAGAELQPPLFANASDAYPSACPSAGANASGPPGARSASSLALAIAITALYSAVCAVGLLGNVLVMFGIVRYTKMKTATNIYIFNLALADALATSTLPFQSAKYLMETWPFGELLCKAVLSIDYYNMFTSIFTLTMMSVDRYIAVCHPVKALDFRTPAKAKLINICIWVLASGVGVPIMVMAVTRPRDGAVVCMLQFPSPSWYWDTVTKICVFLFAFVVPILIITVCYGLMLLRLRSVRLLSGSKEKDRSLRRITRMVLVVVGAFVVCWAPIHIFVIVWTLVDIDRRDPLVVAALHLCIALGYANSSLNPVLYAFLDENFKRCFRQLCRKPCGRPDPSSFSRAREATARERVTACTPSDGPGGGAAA
Experimental: as §1, §2, §3
(§5) In this regard, a different regression analysis method was adopted on the above cAMP experiments. Particularly, a new non-linear regression (four-parameter) was adopted to better account for hill slope, thereby improving the regression fit.

[1] = molecular target: T1, bovine pancreatic trypsin (Bos taurus, UniProt P00760); assay: Trypsin stability assay (Table 10); format: in vitro ADME; details: for half-life: bovine pancreatic trypsin 2.5 μg/mL, 37° C., One Phase Decay, read-out: Stability (t1/2, mins) Trypsin
T1 construct: from tissue; host or cells: bovine pancreas
T1 sequence (P00760 24-246): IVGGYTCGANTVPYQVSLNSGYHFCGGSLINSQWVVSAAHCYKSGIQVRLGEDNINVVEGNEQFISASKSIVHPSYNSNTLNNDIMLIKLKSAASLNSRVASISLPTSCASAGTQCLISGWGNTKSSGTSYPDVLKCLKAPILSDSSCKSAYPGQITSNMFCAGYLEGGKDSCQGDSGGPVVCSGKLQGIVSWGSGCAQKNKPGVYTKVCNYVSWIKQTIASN
Source text: (§6) FIG. 20 is a series of graphs showing the stability of selected peptides in a trypsin (left-hand graphs) and plasma (right-hand graphs) stability assay (data normalised to concentration of each peptide at t=0, determined by LCMS, within each substrate; data analysed using One Phase Decay nonlinear regression in Prism software and each experiment performed in triplicate; mean+/−SEM);
Plasma was collected in house from adult mixed-gender Wistar rats, prepared using 2% EDTA as per standard practice. Peptides were added to rat plasma samples at 37° C. (in a water bath) with final concentrations of 100 uM (1:9 peptide in water:plasma) and a 50 μL sample was immediately taken and precipitated in 150 μL cold acetonitrile (9:1 ACN:water). This sample became the baseline, or t=0 min sample. […] At each time point, the 50 μL of plasma collected was immediately added to cold ACN. Each collected plasma sample in ACN was directly vortexed for 30 seconds and then centrifuged at room temperature (13K rpm, 5 min). 150 μL of the supernatant was taken and directly placed in glass HPLC vials for LCMS analysis.
The protocol for the trypsin stability assay was very similar to the plasma stability assay discussed above. The only difference was the use of a trypsin solution (bovine pancreatic trypsin 2.5 μg/mL in NH4HCO3 buffer, pH approx. 8-8.5, 37° C.) instead of rat plasma. Volumes, times and preparation protocols were exactly as mentioned above.

MOP = MOP (Homo sapiens, UniProt P35372); assay: In vitro cAMP activity at MOP (Table 10); format: cell-based; details: cAMP inhibition, four-parameter regression
MOP, sequence (P35372 whole entry): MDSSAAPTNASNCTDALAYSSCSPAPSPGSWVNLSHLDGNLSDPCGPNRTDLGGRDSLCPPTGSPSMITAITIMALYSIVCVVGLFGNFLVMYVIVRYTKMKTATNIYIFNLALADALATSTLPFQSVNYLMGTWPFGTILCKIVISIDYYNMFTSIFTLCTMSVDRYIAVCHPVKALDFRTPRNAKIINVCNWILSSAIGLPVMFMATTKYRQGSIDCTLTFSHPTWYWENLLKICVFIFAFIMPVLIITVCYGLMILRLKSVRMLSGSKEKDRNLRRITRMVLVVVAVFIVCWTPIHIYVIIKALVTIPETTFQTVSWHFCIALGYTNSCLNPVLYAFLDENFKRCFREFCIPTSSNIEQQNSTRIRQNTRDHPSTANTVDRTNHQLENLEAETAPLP
Experimental: as §1, §2, §3, §5

trypsin = molecular target: T2, trypsin (Bos taurus, UniProt P00760); assay: Trypsin stability; format: in vitro ADME; details: for Trypsin: complete degradation within: 37° C. (Table 8)
T2 sequence (P00760 24-246): T1 sequence (P00760 24-246)
Experimental: (§7) Purified DP-7-11 (1 mg/mL) was dissolved in 0.1 M ammonium bicarbonate (NH4HCO3) buffer. To prepare a stock trypsin solution, 1 mg trypsin was dissolved in 50 mL of 0.1 M NH4HCO3 buffer. Equal volumes of the stock trypsin solution (62.5 μL) and DP-7-11 solution (62.5 μL) were incubated in 375 μL of 0.1M NH4HCO3 buffer in a 37° C. water bath. Aliquots of 100 μL were collected from this mixture at set time intervals of 0 min, up to 24 hours. Ice-cold acetonitrile containing 0.5% TFA was used to quench the reaction between DP-7-11 and trypsin at predetermined intervals, and just prior to HPLC or LC-MS analysis. The quenched samples were vortexed for 10 minutes followed by centrifugation at 12,000 rpm for a further 15 minutes. Supernatant was sampled and analysed using analytical RP-HPLC or LC-MS. Samples without trypsin acted as negative controls and were sampled at two intervals of 0 hour and 6 hours.
(§8) As used in this serum and trypsin stability discussion, the term ‘degraded completely’ relates to the relevant compound being completely absent when tested. In other words, the compound being tested is not observed when tested.
(§9) The serum and trypsin stability of DP-7-11 and DP-7-12 were tested (in some instances again) using LC-MS. The LC-MS utilized in this study was more sensitive than the LC-MS utilized in the above tests.

Serum stability = format: in vitro ADME; details: rat, serum, 37° C., LC-MS (Table 8)
Experimental: as §7
Serum stability of DP-7-11 was also performed. In this regard, rat serum replaced trypsin and NH4HCO3 buffer. Water was used as negative control in place of serum, with the stability study performed in an identical fashion to the trypsin study. […] DP-11-00 and DP-11-06 were tested in a similar manner.
as §8
This appears to indicate the improved metabolic stability of the present invention.
as §9

[2] = Plasma stability assay (Table 10); format: in vitro ADME; details: rat plasma, 37° C., 100 uM peptide, One Phase Decay; read-out: Stability (t1/2, mins) Plasma
Source text: as §6, §4
Plasma was collected in house from adult mixed-gender Wistar rats, prepared using 2% EDTA as per standard practice. Peptides were added to rat plasma samples at 37° C. (in a water bath) with final concentrations of 100 uM (1:9 peptide in water:plasma) and a 50 μL sample was immediately taken and precipitated in 150 μL cold acetonitrile (9:1 ACN:water). This sample became the baseline, or t=0 min sample. Plasma with peptide was immediately returned to the water bath and subsequent 50 μL samples were taken at 5, 10, 15, 30, 60 and 120 min. At each time point, the 50 μL of plasma collected was immediately added to cold ACN. Each collected plasma sample in ACN was directly vortexed for 30 seconds and then centrifuged at room temperature (13K rpm, 5 min). 150 μL of the supernatant was taken and directly placed in glass HPLC vials for LCMS analysis.

Compound | EC50 (KOP) | EC50 (DOP) | half-life [1] | EC50 (MOP) | half-life [2] | other results
CC(C)C[C@H](NC(=O)[C@H](Cc1ccc(Cl)cc1)NC(=O)CN(C)C(=O)[C@@H](N)Cc1ccc(O)cc1)C(=O)N[C@@H](CCCNC(=N)N)C(=O)N[C@H](CCCNC(=N)N)C(=O)NC1CSSC(C)(C)CNC(=O)C[C@@H](C(=O)N[C@@H](CCCCN)C(N)=O)NC(=O)[C@H](CCCNC(=N)N)NC1=O (stereo partly drawn) [CP10, c(Tyr-Sar-(p-Cl-Phe)-Leu-Arg-D(Arg)-SSa-Arg-Asp-Lys)] (H-Y[Sar][Phe(4-Cl)]LR[dR][ξC]RDK-NH2; linker 7-9 via X1; N-terminus assumed) | 0.94 nM | 127 nM | 2.3 min | 1600 nM | – | –
CC(C)C[C@H](NC(=O)[C@H](Cc1ccccc1)NC(=O)CNC(=O)CNC(=O)[C@@H](N)Cc1ccc(O)cc1)C(=O)N[C@@H](CCCNC(=N)N)C(=O)N[C@@H](CCCNC(=N)N)C(N)=O [DP-7-00, Tyr-Gly-Gly-Phe-Leu-Arg-Arg] | – | – | – | – | – | Susceptibility to trypsin digestion (trypsin): highly susceptible; Trypsin: complete degradation within (trypsin): within 1 h
CC[C@H](C)[C@H](NC(=O)C1CSSC(C)(C)CNC(=O)C[C@@H](NC(=O)[C@H](Cc2ccccc2)NC(=O)CNC(=O)CNC(=O)[C@@H](N)Cc2ccc(O)cc2)C(=O)N[C@@H](CCCNC(=N)N)C(=O)N1)C(=O)N[C@@H](CCCNC(=N)N)C(=O)N1CCC[C@H]1C(=O)N[C@@H](CCCCN)C(N)=O (stereo partly drawn) [DP-11-06, c(Tyr-Gly-Gly-Phe-D(Asp)-Arg-SSa-Ile-Arg-Pro-Lys)] (H-YGGF[dD]R[ξC]IRPK-NH2; linker 5-7 via NHCH2CMe2S; N-terminus assumed) | 0.75 nM | – | 360 min | – | 30 min | half-life (Serum stability): 1800 s; Peptide remained in trypsin after 360 minutes ([1]; n = 1): # (more than 90% remained after 360 minutes)
CC[C@H](C)[C@H](NC(=O)[C@H](CCCN=C(N)N)NC(=O)[C@H](CCCN=C(N)N)NC(=O)[C@H](CC(C)C)NC(=O)[C@H](Cc1ccccc1)NC(=O)CNC(=O)CNC(=O)[C@@H](N)Cc1ccc(O)cc1)C(=O)N[C@@H](CCCN=C(N)N)C(=O)N1CCC[C@H]1C(=O)N[C@@H](CCCCN)C(N)=O [DP-11-00] | – | – | – | – | – | Susceptibility to trypsin digestion (trypsin): highly susceptible; Trypsin: complete degradation within (trypsin): within 1 h
CC1(C)CNC(=O)C[C@@H](NC(=O)CNC(=O)[C@@H](N)Cc2ccc(O)cc2)C(=O)N[C@@H](Cc2ccccc2)C(=O)N[C@H](C(=O)N[C@@H](CCCNC(=N)N)C(=O)N[C@@H](CCCNC(=N)N)C(N)=O)CSS1 [DP-7-14, c(Tyr-Gly-D(Asp)-Phe-SSa-Arg-Arg)] (H-YG[dD]FCRR-NH2; linker 3-5 via NHCH2CMe2S) | – | – | < 0.01 min | – | < 0.01 min | –
CC1(C)CNC(=O)C[C@@H](C(=O)N[C@@H](CCCNC(=N)N)C(=O)N[C@@H](CCCNC(=N)N)C(N)=O)NC(=O)[C@H](Cc2ccccc2)NC(=O)CNC(=O)C(NC(=O)[C@@H](N)Cc2ccc(O)cc2)CSS1 (stereo partly drawn) [CP1, c(Tyr-SSa-Gly-Phe-L-Asp-Arg-Arg)] | 1270 nM | > 10000 nM | < 0.01 min | 4530 nM | < 0.01 min | –
CC1(C)CNC(=O)C[C@H](C(=O)N[C@@H](CCCNC(=N)N)C(=O)N[C@@H](CCCNC(=N)N)C(N)=O)NC(=O)[C@H](Cc2ccccc2)NC(=O)C(NC(=O)CNC(=O)[C@@H](N)Cc2ccc(O)cc2)CSS1 (stereo partly drawn) [DP-7-13, c(Tyr-Gly-SSa-Phe-D(Asp)-Arg-Arg)] (H-YG[ξC]F[dD]RR-NH2; linker 3-5 via X1; N-terminus assumed) | – | – | < 0.01 min | – | < 0.01 min | –
CC1(C)CNC(=O)C[C@@H](C(=O)N[C@@H](CCCNC(=N)N)C(=O)N[C@@H](CCCNC(=N)N)C(N)=O)NC(=O)[C@H](Cc2ccccc2)NC(=O)C(NC(=O)CNC(=O)[C@@H](N)Cc2ccc(O)cc2)CSS1 (stereo partly drawn) [CP3, c(Tyr-Gly-SSa-Phe-Asp-Arg-Arg)] (H-YG[ξC]FDRR-NH2; linker 3-5 via X1; N-terminus assumed) | > 10000 nM | > 10000 nM | – | > 10000 nM | – | –
CC1(C)CNC(=O)C[C@H](NC(=O)CNC(=O)[C@@H](N)Cc2ccc(O)cc2)C(=O)N[C@@H](Cc2ccccc2)C(=O)NC(C(=O)N[C@@H](CCCNC(=N)N)C(=O)N[C@@H](CCCNC(=N)N)C(N)=O)CSS1 (stereo partly drawn) [CP4, c(Tyr-Gly-Asp-Phe-SSa-Arg-Arg)] (H-YGDF[ξC]RR-NH2; linker 3-5 via NHCH2CMe2S; N-terminus assumed) | > 10000 nM | > 10000 nM | – | > 10000 nM | – | –
CC(C)C[C@H](NC(=O)[C@H](Cc1ccc([N+](=O)[O-])cc1)NC(=O)CN(C)C(=O)[C@@H](N)Cc1ccc(O)cc1)C(=O)N[C@@H](CCCNC(=N)N)C(=O)N(C)[C@@H](CCCNC(=N)N)C(=O)NC1CSSC(C)(C)CNC(=O)C[C@@H](C(=O)N[C@@H](CCCCN)C(N)=O)NC(=O)[C@H](CCCNC(=N)N)NC1=O (stereo partly drawn) [CP12, c(Tyr-Sar-(p-NO2-Phe)-Leu-Arg-NMA-SSa-Arg-Asp-Lys)] (H-Y[Sar][Phe(4-NO2)]LR[NMeR][ξC]RDK-NH2; linker 7-9 via X1; N-terminus assumed) | 7.5 nM | – | 0.019 min | – | < 0.01 min | –
